Where two headings read alike, the source gives them in different places. A value given as a limit tells only on which side of the number the result lay.

This test concerns HT-29 cells. As to the kind of experiment: HT-29 necroptosis cell viability assay (TNF-α/SMAC mimetic/zVAD-FMK, CellTiter-Glo). The test is classed as cell-based. The conditions noted are these: Homo sapiens. The gist of the method:
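HT-29 cells (~5,000/well, overnight) in FBS-free McCoy's 5A with TNF-α 10 ng/ml, SMAC mimetic 6 μM and zVAD-FMK 10 μM plus 10-point 1:3 compound titration, 20 h at 37°C. ATP measured by CellTiter-Glo luminescence; IC50 as geometric mean of duplicates.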

The mark [1] stands for this setting: HT-29, HT-29 necroptosis cell viability, IC50 class symbols, read-out: Activity.
[2] abbreviates: HT-29, HT-29 necroptosis cell viability assay, class symbols for IC50, read-out: Activity.
Where [3] appears, read: HT-29 cells stimulated with TNF-α (10 ng/ml), SMAC mimetic (6 μM) and zVAD-FMK (10 μM), 20 hours, CellTiter-Glo ATP luminescence, geometric mean IC50 from 10 points, read-out: Activity.
The mark [4] stands for this setting: HT-29, HT-29 cells, necroptosis induced by TNF-α/SMAC mimetic/zVAD-FMK, CellTiter-Glo, read-out: Activity (IC50 class).

For the compound `CCNc1cc(Oc2ccc(-n3ncn(Cc4c(F)cccc4F)c3=O)cc2)ccn1` [Example 346, 4-(2,6-difluorobenzyl)-2-(4-((2-(ethylamino)pyridin-4-yl)oxy)phenyl)-2,4-dihydro-3H-1,2,4-triazol-3-one], under setting [1], the IC50 lay in the range of 0.1 to 1 µM.
For `CCOC(=O)C(F)(F)c1nc(C)c(Oc2ccc(-n3ncn(Cc4c(F)cccc4F)c3=O)cc2F)s1` [Example 118, ethyl 2-(5-(4-(4-(2,6-difluorobenzyl)-5-oxo-4,5-dihydro-1H-1,2,4-triazol-1-yl)-2-fluorophenoxy)-4-methylthiazol-2-yl)-2,2-difluoroacetate], the IC50 under setting [2] was in the range of 0.1 to 1 µM.
`Cc1nc(N2CC(C)(C#N)C2)sc1C(=O)c1ccc(-n2ncn(Cc3c(F)cccc3F)c2=O)cc1` [Example 510, 1-(5-(4-(4-(2,6-difluorobenzyl)-5-oxo-4,5-dihydro-1H-1,2,4-triazol-1-yl)benzoyl)-4-methylthiazol-2-yl)-3-methylazetidine-3-carbonitrile]: the IC50 under setting [2] was in the range of 0.1 to 1 µM.
With `Nc1c(Oc2ccc(-n3ncn(Cc4c(F)cccc4F)c3=O)cc2)ccnc1N1CC2(CCOCC2)C1` [Example 410, 2-(4-((3-amino-2-(7-oxa-2-azaspiro[3.5]nonan-2-yl)pyridin-4-yl)oxy)phenyl)-4-(2,6-difluorobenzyl)-2,4-dihydro-3H-1,2,4-triazol-3-one], the IC50 under setting [1] fell in the range of 0.1 to 1 µM.
Regarding `CCOC1CN(c2nc(C)c(Oc3ccc(-n4ncn(Cc5c(F)cccc5F)c4=O)cc3)s2)C1` [Example 74, 4-(2,6-difluorobenzyl)-2-(4-((2-(3-ethoxyazetidin-1-yl)-4-methylthiazol-5-yl)oxy)phenyl)-2,4-dihydro-3H-1,2,4-triazol-3-one], the IC50 under setting [3] is < 0.1 µM.
Take `CC1(N)CN(c2nccc(Oc3ccc(-n4ncn(Cc5c(F)cccc5F)c4=O)cc3Cl)c2F)C1` [Example 423, 2-(4-((2-(3-amino-3-methylazetidin-1-yl)-3-fluoropyridin-4-yl)oxy)-3-chlorophenyl)-4-(2,6-difluorobenzyl)-2,4-dihydro-3H-1,2,4-triazol-3-one]: the IC50 under setting [1] is < 0.1 µM.
The same measure, in the same setting: under `N#CC12CC(Nc3cc(Oc4ccc(-n5ncn(Cc6c(F)cccc6F)c5=O)cc4Cl)c(F)cn3)(C1)C2` [Example 272, 3-((4-(2-chloro-4-(4-(2,6-difluorobenzyl)-5-oxo-4,5-dihydro-1H-1,2,4-triazol-1-yl)phenoxy)-5-fluoropyridin-2-yl)amino)bicyclo[1.1.1]pentane-1-carbonitrile] stands < 0.1 µM.
`COC(=O)c1cnc(Oc2ccc(-n3ncn(Cc4c(F)cccc4F)c3=O)cc2F)n1C` [Example 173, methyl 2-(4-(4-(2,6-difluorobenzyl)-5-oxo-4,5-dihydro-1H-1,2,4-triazol-1-yl)-2-fluorophenoxy)-1-methyl-1H-imidazole-5-carboxylate]: the IC50 under setting [2] was 0.1 to 1 µM.
With `O=c1n(Cc2c(F)cccc2F)cnn1-c1ccc(Oc2ncsc2C(F)F)c(F)c1` [Example 152, 4-(2,6-difluorobenzyl)-2-(4-((5-(difluoromethyl)thiazol-4-yl)oxy)-3-fluorophenyl)-2,4-dihydro-3H-1,2,4-triazol-3-one], the IC50 under setting [2] was < 0.1 µM.
Take `N#CC1CC(n2cccc(Cc3ccc(-n4ncn(Cc5c(F)cccc5F)c4=O)cc3)c2=O)C1` (stereo not shown) [Example 682, 3-(3-(4-(4-(2,6-difluorobenzyl)-5-oxo-4,5-dihydro-1H-1,2,4-triazol-1-yl)benzyl)-2-oxopyridin-1(2H)-yl)cyclobutane-1-carbonitrile]: the IC50 under setting [4] was 0.1 to 1 µM.
Turning to `Cc1nc(N)sc1S(=O)(=O)c1ccc(-n2ncn(Cc3ccccc3)c2=O)cc1` [Example 627, 2-(4-((2-amino-4-methylthiazol-5-yl)sulfonyl)phenyl)-4-benzyl-2,4-dihydro-3H-1,2,4-triazol-3-one], the IC50 under setting [2] lay within 0.1 to 1 µM.
In the case of `CCOC1CN(c2nccc(Oc3ccc(-n4ncn(Cc5c(F)cccc5F)c4=O)cc3)c2C)C1` [Example 236, 4-(2,6-difluorobenzyl)-2-(4-((2-(3-ethoxyazetidin-1-yl)-3-methylpyridin-4-yl)oxy)phenyl)-2,4-dihydro-3H-1,2,4-triazol-3-one], the IC50 under setting [1] was < 0.1 µM.
Consider `Cc1nc(N2CC(N)(CF)C2)sc1Oc1ccc(-n2ncn(Cc3c(F)cccc3F)c2=O)cc1F` [Example 452, 2-(4-((2-(3-amino-3-(fluoromethyl)azetidin-1-yl)-4-methylthiazol-5-yl)oxy)-3-fluorophenyl)-4-(2,6-difluorobenzyl)-2,4-dihydro-3H-1,2,4-triazol-3-one], for which the IC50 under setting [1] is < 0.1 µM.
Turning to `C[C@H]1C[C@@H](C#N)CN1c1cc(Oc2ccc(-n3ncn(Cc4c(F)cccc4F)c3=O)cc2F)c(Cl)cn1` [Example 240, (3R,5S)-1-(5-chloro-4-(4-(4-(2,6-difluorobenzyl)-5-oxo-4,5-dihydro-1H-1,2,4-triazol-1-yl)-2-fluorophenoxy)pyridin-2-yl)-5-methylpyrrolidine-3-carbonitrile], the IC50 under setting [1] is < 0.1 µM.
Take `Cc1nc(C(N)=O)sc1Oc1ccc(-n2nc3n(c2=O)C(c2ccc(F)cc2)CC3)cc1F` (stereo not shown) [Example 667, 5-(2-fluoro-4-(5-(4-fluorophenyl)-3-oxo-6,7-dihydro-3H-pyrrolo[1,2-c][1,2,4]triazol-2(5H)-yl)phenoxy)-4-methylthiazole-2-carboxamide]: under setting [4], the IC50 is < 0.1 µM.
For `C[C@H]1C[C@@H](C#N)CN1c1cc(Oc2ccc(-n3ncn(Cc4c(F)cccc4F)c3=O)cc2F)c(F)cn1` [Example 284, (3R,5S)-1-(4-(4-(4-(2,6-difluorobenzyl)-5-oxo-4,5-dihydro-1H-1,2,4-triazol-1-yl)-2-fluorophenoxy)-5-fluoropyridin-2-yl)-5-methylpyrrolidine-3-carbonitrile], the IC50 under setting [1] was < 0.1 µM.
`Cn1nc(C(C)(C)O)cc1Oc1ccc(-n2ncn(Cc3c(F)cccc3F)c2=O)cc1F` [Example 134, 4-(2,6-difluorobenzyl)-2-(3-fluoro-4-((3-(2-hydroxypropan-2-yl)-1-methyl-1H-pyrazol-5-yl)oxy)phenyl)-2,4-dihydro-3H-1,2,4-triazol-3-one]: the IC50 under setting [2] was < 0.1 µM.
As to `Nc1cccc(Cl)c1Oc1ccc(-n2ncn(Cc3c(F)cccc3F)c2=O)cc1` [Example 440, 2-(4-(2-amino-6-chlorophenoxy)phenyl)-4-(2,6-difluorobenzyl)-2,4-dihydro-3H-1,2,4-triazol-3-one], the IC50 under setting [1] is < 0.1 µM.
Same read-out and setting: under `CC(C)(C)OC(=O)N1CCC12CN(c1cc(Oc3ccc(-n4ncn(Cc5c(F)cccc5F)c4=O)cc3)ccn1)C2` [Example 317, tert-butyl 6-(4-(4-(4-(2,6-difluorobenzyl)-5-oxo-4,5-dihydro-1H-1,2,4-triazol-1-yl)phenoxy)pyridin-2-yl)-1,6-diazaspiro[3.3]heptane-1-carboxylate] stands 1 to 10 µM.
Turning to `COC(=O)c1cn(Cc2ccc(-n3ncn(Cc4c(F)cccc4F)c3=O)cc2F)c(C)n1` [Example 210, methyl 1-(4-(4-(2,6-difluorobenzyl)-5-oxo-4,5-dihydro-1H-1,2,4-triazol-1-yl)-2-fluorobenzyl)-2-methyl-1H-imidazole-4-carboxylate], the IC50 under setting [2] fell in the range of 0.1 to 1 µM.
Still for that read-out and setting: in the case of `Cc1nc(C#N)c(C)n1Cc1ccc(-n2ncn(Cc3c(F)cccc3F)c2=O)cc1F` [Example 122, 1-(4-(4-(2,6-difluorobenzyl)-5-oxo-4,5-dihydro-1H-1,2,4-triazol-1-yl)-2-fluorobenzyl)-2,5-dimethyl-1H-imidazole-4-carbonitrile] it was < 0.1 µM; in that of `Cc1ncsc1Oc1ccc(-n2ncn(Cc3cc(F)ccc3F)c2=O)cc1F` [Example 563, 4-(2,5-difluorobenzyl)-2-(3-fluoro-4-((4-methylthiazol-5-yl)oxy)phenyl)-2,4-dihydro-3H-1,2,4-triazol-3-one], < 0.1 µM.
Turning to `Cc1nc(C(N)=O)sc1Oc1ccc(-n2nc3n(c2=O)[C@H](C2CCCC2)CC3)cc1F` (single isomer, unassigned) [Example 702], under setting [3], the IC50 is < 0.1 µM.
Turning to `CN(c1cc(Oc2ccc(-n3ncn(Cc4c(F)cccc4F)c3=O)cc2)ccn1)C1CC(F)(F)C1` [Example 478, 4-(2,6-difluorobenzyl)-2-(4-((2-((3,3-difluorocyclobutyl)(methyl)amino)pyridin-4-yl)oxy)phenyl)-2,4-dihydro-3H-1,2,4-triazol-3-one], under setting [1], the IC50 is 0.1 to 1 µM.
`C[C@H]1C[C@H](N)CN1c1cc(Oc2ccc(-n3ncn(Cc4c(F)cccc4F)c3=O)cc2)ccn1` [Example 316, 2-(4-((2-((2S,4S)-4-amino-2-methylpyrrolidin-1-yl)pyridin-4-yl)oxy)phenyl)-4-(2,6-difluorobenzyl)-2,4-dihydro-3H-1,2,4-triazol-3-one]: the IC50 under setting [1] was < 0.1 µM.
As to `Cc1nc(C(C)(C)O)sc1Oc1ncc(-n2ncn(Cc3c(F)cccc3F)c2=O)cc1F` [Example 465, 4-(2,6-difluorobenzyl)-2-(5-fluoro-6-((2-(2-hydroxypropan-2-yl)-4-methylthiazol-5-yl)oxy)pyridin-3-yl)-2,4-dihydro-3H-1,2,4-triazol-3-one], the IC50 under setting [1] was < 0.1 µM.
Take `O=C1NC2(CO1)CN(c1cc(Oc3ccc(-n4ncn(Cc5c(F)cccc5F)c4=O)cc3F)c(F)cn1)C2` [Example 656, 2-[4-[4-[4-[(2,6-difluorophenyl)methyl]-5-oxo-1,2,4-triazol-1-yl]-2-fluoro-phenoxy]-5-fluoro-2-pyridyl]-7-oxa-2,5-diazaspiro[3.4]octan-6-one]: the IC50 under setting [4] is < 0.1 µM.
For the compound `O=c1n(Cc2c(F)cccc2F)cnn1-c1ccc(Oc2ccnc(NC3COC3)c2)cc1` [Example 343, 4-(2,6-difluorobenzyl)-2-(4-((2-(oxetan-3-ylamino)pyridin-4-yl)oxy)phenyl)-2,4-dihydro-3H-1,2,4-triazol-3-one], the IC50 under setting [1] lay in the range of 1 to 10 µM.

Source of the values: patent publication US20250179061A1 (SIRONAX LTD., priority 2022, published 2025).
